Converted amounts (≈) assume the structure as drawn. Where two headings read alike, the source gives them in different places.
Columns and labels:
[1] = system: Mtb strain mc^2-7000; assay: microbe, parasite or virus in culture; assay type: cell-based, Mycobacterium tuberculosis; details: 6 days incubation at 37° C., resazurin, read on the 7th day
[2] = target: Mtb AccD6 (Mycobacterium tuberculosis, UniProt P9WQH5); assay: biochemical; assay type: biochemical; details: for IC50: 300 μM malonyl-CoA, inhibitor 10 μM to 2000 μM
Mtb AccD6, sequence (P9WQH5 whole entry, looked up): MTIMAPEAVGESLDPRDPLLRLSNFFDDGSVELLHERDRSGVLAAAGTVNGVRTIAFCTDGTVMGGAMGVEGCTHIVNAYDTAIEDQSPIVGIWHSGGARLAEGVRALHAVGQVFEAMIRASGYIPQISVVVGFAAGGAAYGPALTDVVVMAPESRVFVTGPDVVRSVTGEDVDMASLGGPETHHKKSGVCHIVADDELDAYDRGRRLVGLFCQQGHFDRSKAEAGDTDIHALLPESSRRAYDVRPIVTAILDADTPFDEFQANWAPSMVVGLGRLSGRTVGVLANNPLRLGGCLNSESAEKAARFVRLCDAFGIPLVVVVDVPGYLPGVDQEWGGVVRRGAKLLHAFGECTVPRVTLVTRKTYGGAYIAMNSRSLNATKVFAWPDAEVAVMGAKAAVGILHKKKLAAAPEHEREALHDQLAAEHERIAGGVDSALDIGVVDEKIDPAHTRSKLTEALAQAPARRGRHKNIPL

[3] = system: S. cerevisiae
[4] = system: human fibroblast
[5] = Mycobacterium tuberculosis, 144 h, read-out: MIC

| Compound | MIC [1, 5] | IC50 ([2]; read-out: IC50) | concentrations at which not toxic, s. cerevisiae cytotoxicity [3] | concentrations at which not toxic, human fibroblast cytotoxicity [4] | MIC [1] | inhibition at 15 µM ([2]; 15 uM) | IC50 [2] | inhibition at 20 µM ([2]; read-out: inhibition at 20 uM) |
| --- | --- | --- | --- | --- | --- | --- | --- | --- |
| CNC(=O)Cc1ccc(Oc2nc3ccc(Cl)cc3s2)cc1O [NZ-389, 2-{4-[(6-chloro-1,3-benzothiazol-2-yl)oxy]-2-hydroxyphenyl}-N-methylacetamide] | 1.2 to 2.2 µM (≈ 0.419 to 0.767 µg/mL) | 210 nM | ≥ 100 µM | ≥ 100 µM | – | – | – | – |
| CC(C(=O)N(C)C)c1ccc(Oc2nc3ccc(Cl)cc3s2)cc1 (stereo not shown) [NZ-368, 2-{4-[(6-chloro-1,3-benzothiazol-2-yl)oxy]phenyl}-N,N-dimethylpropanamide] | 2.07 µM (≈ 0.747 µg/mL) | 3600 nM | 25 to 50 µM | ≥ 100 µM | – | – | – | – |
| CC(C)NC(=O)Nc1ccc(Oc2nc3cc(F)c(F)cc3s2)cc1 [NZ-382, 1-{4-[(5,6-difluoro-1,3-benzothiazol-2-yl)oxy]phenyl}-3-(propan-2-yl)urea] | – | 270 to 350 nM | 50 to 100 µM | ≥ 100 µM | Not Active | – | – | – |
| CNC(=O)C(C)c1ccc(Oc2nc3cc(Cl)c(Cl)cc3s2)cc1 (stereo not shown) [NZ-394, 2-{4-[(5,6-dichloro-1,3-benzothiazol-2-yl)oxy]phenyl}-N-methylpropanamide] | – | 980 nM | ≥ 100 µM | ≥ 100 µM | Not active | – | – | – |
| CON(C)C(=O)COc1ccc(Oc2cnc3cc(Cl)ccc3n2)cc1 [NZ-290, 2-{4-[(6-chloroquinoxalin-2-yl)oxy]phenoxy}-N-methoxy-N-methylacetamide] | 1.5 µM (≈ 0.561 µg/mL) | 2500 nM | ≥ 100 µM | ≥ 100 µM | – | – | – | – |
| CCNC(=O)COc1ccc(Oc2cnc3cc(Cl)ccc3n2)cc1 [NZ-306, 2-{4-[(6-chloroquinoxalin-2-yl)oxy]phenoxy}-N-ethylacetamide] | 25 µM (≈ 8.94 µg/mL) | 4600 nM | ≥ 100 µM | ≥ 100 µM | – | – | – | – |
| CC(C(=O)O)c1ccc(Oc2nc3ccc(F)cc3s2)cc1 (stereo not shown) [NZ-329, 2-{4-[(6-fluoro-1,3-benzothiazol-2-yl)oxy]phenyl}propanoic acid] | 12 µM (≈ 3.81 µg/mL) | 370 nM | ≥ 100 µM | ≥ 100 µM | – | – | – | – |
| CNC(=O)Cc1ccc(Oc2nc3ccc(F)cc3s2)cc1 [NZ-385, 2-{4-[(6-fluoro-1,3-benzothiazol-2-yl)oxy]phenyl}-N-methylacetamide] | 3 µM (≈ 0.949 µg/mL) | 870 nM | ≥ 100 µM | ≥ 100 µM | – | – | – | – |
| O=C(O)Cc1ccc(Oc2nc3ccc(Cl)cc3s2)cc1 [NZ-287, 2-{4-[(6-chloro-1,3-benzothiazol-2-yl)oxy]phenyl}acetic acid] | 12 µM (≈ 3.84 µg/mL) | 520 nM | ≥ 100 µM | ≥ 100 µM | – | – | – | – |
| CONC(=O)COc1ccc(Oc2nc3ccc(F)cc3s2)cc1 [NZ-305, 2-{4-[(6-fluoro-1,3-benzothiazol-2-yl)oxy]phenoxy}-N-methoxyacetamide] | 3 µM (≈ 1.05 µg/mL) | – | ≥ 100 µM | ≥ 100 µM | – | 50% | – | – |
| CNC(=O)Cc1ccc(Oc2cnc3cc(Cl)ccc3n2)cc1O [NZ-402, 2-{4-[(6-chloroquinoxalin-2-yl)oxy]-2-hydroxyphenyl}-N-methylacetamide] | 2.16 µM (≈ 0.743 µg/mL) | 210 nM | ≥ 100 µM | ≥ 100 µM | – | – | – | – |
| CNC(=O)Cc1ccc(Oc2nc3ccc(F)cc3s2)cc1O [NZ-395, 2-{4-[(6-fluoro-1,3-benzothiazol-2-yl)oxy]-2-hydroxyphenyl}-N-methylacetamide] | 0.6 to 0.9 µM (≈ 0.199 to 0.299 µg/mL) | 160 nM | ≥ 100 µM | ≥ 100 µM | – | – | – | – |
| CONC(=O)Cc1ccc(Oc2nc3ccc(F)cc3s2)cc1 [NZ-300, 2-{4-[(6-fluoro-1,3-benzothiazol-2-yl)oxy]phenyl}-N-methoxyacetamide] | 7.5 µM (≈ 2.49 µg/mL) | 820 nM | ≥ 100 µM | ≥ 100 µM | – | – | – | – |
| O=C(O)COc1ccc(Oc2nc3ccc(F)cc3s2)cc1 [NZ-304, 2-{4-[(6-fluoro-1,3-benzothiazol-2-yl)oxy]phenoxy}acetic acid] | 25 µM (≈ 7.98 µg/mL) | 3400 nM | ≥ 100 µM | ≥ 100 µM | – | – | – | – |
| COC(=O)Cc1ccc(Oc2nc3cc(F)c(F)cc3s2)cc1 [NZ-398, methyl 2-{4-[(5,6-difluoro-1,3-benzothiazol-2-yl)oxy]phenyl}acetate] | 0.89 µM | 3600 nM | ≥ 100 µM | ≥ 100 µM | – | – | – | – |
| CC(C)(Oc1ccc(Oc2nc3ccc(Cl)cc3s2)cc1)C(=O)O [NZ-318, 2-{4-[(6-chloro-1,3-benzothiazol-2-yl)oxy]phenoxy}-2-methylpropanoic acid] | 12 µM (≈ 4.37 µg/mL) | 1500 nM | ≥ 100 µM | ≥ 100 µM | – | – | – | – |
| CC(C(=O)O)c1ccc(Oc2nc3ccc(Cl)cc3s2)cc1 (stereo not shown) [NZ-312, 2-{4-[(6-chloro-1,3-benzothiazol-2-yl)oxy]phenyl}propanoic acid] | 6 µM (≈ 2 µg/mL) | 260 nM | ≥ 100 µM | ≥ 100 µM | – | – | – | – |
| CC(C)NC(=O)N(C)c1ccc(Oc2nc3ccc(Cl)cc3s2)cc1 [NZ-388, 1-{4-[(6-chloro-1,3-benzothiazol-2-yl)oxy]phenyl}-1-methyl-3-(propan-2-yl)urea] | 2.1 µM (≈ 0.789 µg/mL) | 3000 nM | ≥ 100 µM | ≥ 100 µM | – | – | – | – |
| CC(C)NC(=O)COc1ccc(Oc2cnc3cc(Cl)ccc3n2)cc1 [NZ-307, 2-{4-[(6-chloroquinoxalin-2-yl)oxy]phenoxy}-N-(propan-2-yl)acetamide] | 3 µM (≈ 1.12 µg/mL) | 2500 nM | ≥ 100 µM | ≥ 100 µM | – | – | – | – |
| CNC(=O)Cc1ccc(Oc2nc3ccc(Cl)cc3s2)cc1OC [NZ-392, 2-{4-[(6-chloro-1,3-benzothiazol-2-yl)oxy]-2-methoxyphenyl}-N-methylacetamide] | 7.28 µM (≈ 2.64 µg/mL) | 7180 nM | ≥ 100 µM | ≥ 100 µM | – | – | – | – |
| O=C(O)Cc1ccc(Oc2nc3cc(F)c(F)cc3s2)cc1 [NZ-399, 2-{4-[(5,6-difluoro-1,3-benzothiazol-2-yl)oxy]phenyl}acetic acid] | 1.36 µM (≈ 0.437 µg/mL) | 180 nM | ≥ 100 µM | ≥ 100 µM | – | – | – | – |
| CC(C)NC(=O)Nc1ccc(Oc2nc3ccc(CO)cc3s2)cc1 [NZ-381, 1-(4-{[6-(hydroxymethyl)-1,3-benzothiazol-2-yl]oxy}phenyl)-3-(propan-2-yl)urea] | 7.3 µM (≈ 2.61 µg/mL) | – | ≥ 100 µM | ≥ 100 µM | – | – | Not Active | – |
| CONC(=O)C(C)c1ccc(Oc2nc3ccc(F)cc3s2)cc1 (racemic) [NZ-330, 2-{4-[(6-fluoro-1,3-benzothiazol-2-yl)oxy]phenyl}-N-methoxypropanamide] | 1.5 µM (≈ 0.52 µg/mL) | 240 nM | ≥ 100 µM | ≥ 100 µM | – | – | – | – |
| CONC(=O)[C@@H](C)Oc1ccc(Oc2cnc3cc(Cl)ccc3n2)cc1 [NZ-295, (2R)-2-{4-[(6-chloroquinoxalin-2-yl)oxy]phenoxy}-N-methoxypropanamide] | 4.5 µM (≈ 1.68 µg/mL) | 930 nM | ≥ 100 µM | ≥ 100 µM | – | – | – | – |
| CC(C)NC(=O)Nc1ccc(Oc2nc3ccc(O)cc3s2)cc1 [NZ-362, 1-{4-[(6-hydroxy-1,3-benzothiazol-2-yl)oxy]phenyl}-3-(propan-2-yl)urea] | 6.5 µM (≈ 2.23 µg/mL) | – | ≥ 100 µM | ≥ 100 µM | – | – | – | 20% |
| CNC(=O)Cc1ccc(Oc2nc3cc(F)c(F)cc3s2)cc1 [NZ-400, 2-{4-[(5,6-difluoro-1,3-benzothiazol-2-yl)oxy]phenyl}-N-methylacetamide] | 0.61 µM (≈ 0.204 µg/mL) | 210 nM | ≥ 100 µM | ≥ 100 µM | – | – | – | – |
| CC(C(=O)N1CCN(C)CC1)c1ccc(Oc2nc3ccc(Cl)cc3s2)cc1 (stereo not shown) [NZ-366, 2-{4-[(6-chloro-1,3-benzothiazol-2-yl)oxy]phenyl}-1-(4-methylpiperazin-1-yl)propan-1-one] | 0.56 µM (≈ 0.233 µg/mL) | 4900 nM | 25 to 50 µM | 25 to 50 µM | – | – | – | – |
| CNC(=O)C(C)c1ccc(Oc2nc3ccc(F)cc3s2)cc1 (stereo not shown) [NZ-386, 2-{4-[(6-fluoro-1,3-benzothiazol-2-yl)oxy]phenyl}-N-methylpropanamide] | 1.1 to 2.1 µM (≈ 0.363 to 0.694 µg/mL) | 620 nM | ≥ 100 µM | ≥ 100 µM | – | – | – | – |
